Results taken from patent publication US20120052064A1, “ANTI-HGF ANTIBODY COMBINATIONAL CANCER THERAPIES” (priority 2009, published 2012).

What was measured:
[1] = test system: KP-4 human pancreatic tumor xenograft; details: 40 mg/kg
Description: Sunitinib was administered orally and once-daily at a dose of 40 mg/kg on days 11-25 as its 0.5% methyl cellulose suspension. Administration volume was 10 mL/kg.

[2] = molecular target: c-Met receptor (Homo sapiens, UniProt P08581); details: read-out: Kd, high affinity binding site; cited from earlier work
[3] = molecular target: heparin sulfate proteoglycans (HSPG); details: HSPG on the cell surface and extracellular matrix; read-out: Kd, low affinity binding site; cited from earlier work
[4] = test system: IM95m human gastric tumor xenograft; assay: Human gastric cancer IM95m tumor xenograft model; type: in vivo, mouse; details: SCID mice, s.c. IM95m; day 53 to day 81; HuL2G7 10 mg/kg i.v. once-weekly, erlotinib 25 mg/kg p.o. once-daily days 53-80, or both
Description: FIG. 1. (A) Combination effects of humanized L2G7 (HuL2G7) and erlotinib in gastric cancer (tumor) IM95m xenograft model. Treatment was started from 53 days after inoculation. Mice treated with relevant vehicles (i.v. and/or p.o.), HuL2G7 (10 mg/kg/week, i.v., on days 53, 60, 67, and 74), erlotinib (25 mg/kg, p.o., qd×28 doses) or the combined regimen for 28 days. Data represents mean±SD (n=6). *p≦0.025 by one-tailed Dunnett's test (v.s. vehicle). (B) Comparison of differential tumor volumes of the mice group treated with HuL2G7, erlotinib, and a combination of the two. Tumor volume of each mouse on days 53 was subtracted from the volume on days 81. Data represents mean±SD (n=6). # p≦0.05 by Wilcoxon signed-rank test (v.s. combo).

c-Met receptor, sequence (P08581 25-1390): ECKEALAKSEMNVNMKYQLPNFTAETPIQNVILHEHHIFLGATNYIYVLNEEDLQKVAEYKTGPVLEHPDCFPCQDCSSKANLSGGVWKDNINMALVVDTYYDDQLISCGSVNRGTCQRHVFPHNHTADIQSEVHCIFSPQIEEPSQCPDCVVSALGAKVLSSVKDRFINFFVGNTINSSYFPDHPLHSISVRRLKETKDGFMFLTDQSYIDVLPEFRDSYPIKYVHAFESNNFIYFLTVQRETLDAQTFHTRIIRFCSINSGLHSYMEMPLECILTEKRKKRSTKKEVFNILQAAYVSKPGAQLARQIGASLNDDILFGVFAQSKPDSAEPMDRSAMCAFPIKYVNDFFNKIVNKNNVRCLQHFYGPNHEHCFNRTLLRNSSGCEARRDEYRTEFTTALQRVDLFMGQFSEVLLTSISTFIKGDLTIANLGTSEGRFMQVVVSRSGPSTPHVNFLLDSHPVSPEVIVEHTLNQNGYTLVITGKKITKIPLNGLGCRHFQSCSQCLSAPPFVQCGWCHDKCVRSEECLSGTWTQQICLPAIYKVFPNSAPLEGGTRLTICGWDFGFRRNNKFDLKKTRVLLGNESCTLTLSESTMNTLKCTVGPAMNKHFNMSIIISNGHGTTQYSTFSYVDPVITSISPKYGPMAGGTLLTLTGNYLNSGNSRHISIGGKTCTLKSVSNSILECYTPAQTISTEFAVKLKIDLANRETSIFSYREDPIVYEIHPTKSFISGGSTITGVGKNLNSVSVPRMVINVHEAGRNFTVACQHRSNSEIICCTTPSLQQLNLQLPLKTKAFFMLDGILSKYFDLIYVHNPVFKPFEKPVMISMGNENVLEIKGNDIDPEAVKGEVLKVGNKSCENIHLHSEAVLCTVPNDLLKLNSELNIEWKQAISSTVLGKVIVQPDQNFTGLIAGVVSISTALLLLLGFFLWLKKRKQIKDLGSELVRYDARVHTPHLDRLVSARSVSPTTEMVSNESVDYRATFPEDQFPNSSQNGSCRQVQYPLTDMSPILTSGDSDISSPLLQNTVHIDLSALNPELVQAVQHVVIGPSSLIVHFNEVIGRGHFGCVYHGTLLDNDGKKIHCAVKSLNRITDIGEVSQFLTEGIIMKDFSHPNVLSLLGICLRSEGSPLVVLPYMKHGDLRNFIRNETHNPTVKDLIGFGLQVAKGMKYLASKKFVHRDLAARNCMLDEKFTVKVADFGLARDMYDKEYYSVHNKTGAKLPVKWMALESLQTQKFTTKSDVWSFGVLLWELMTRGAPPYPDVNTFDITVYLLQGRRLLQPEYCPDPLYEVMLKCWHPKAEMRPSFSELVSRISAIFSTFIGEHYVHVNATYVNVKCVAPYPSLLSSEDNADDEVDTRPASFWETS

Compound: CCN(CC)CCNC(=O)c1c(C)[nH]c(/C=C2\C(=O)Nc3ccc(F)cc32)c1C [sunitinib]
- T/C (%) = ΔT/ΔC×100, change in tumor volume [1]: 48%

Compound: HGF: multifunctional heterodimeric polypeptide, 102 kDa, ligand of c-Met
- Kd [2]: 200 pM
- Kd [3]: 1000 pM

Compound: C#Cc1cccc(Nc2ncnc3cc(OCCOC)c(OCCOC)cc23)c1 [erlotinib]
- T/C (%) = ΔT/ΔC×100, change in tumor volume [4]: 45%
